Source: US20250235460A1, “COMBINATION THERAPY USING GLUCOSE-DEPENDENT INSULINOTROPIC POLYPEPTIDE RECEPTOR ANTAGONIST COMPOUNDS AND GLP-1 RECEPTOR AGONIST COMPOUNDS” (Pfizer Inc., priority 2024, published 2025)
Like-named read-outs stand apart in the source and are kept apart here.

Target: human GLP-1R (Homo sapiens, UniProt P43220, G168S)
Test: CHO GLP-1R Clone H6 cAMP HTRF agonist assay (Assay 1, high receptor density)
Type: cell-based
Conditions: for EC50: CHO GLP-1R clone H6, cAMP HTRF, geometric mean; for Emax: arithmetic mean
Method in brief: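 EC50 values are reported as geometric means and Emax as arithmetic means across the listed number of replicates, both given to two significant figures.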

[1] = CHO GLP-1R clone H6, relative to saturating GLP-1 (1 μM), read-out: Assay 1 Emax (%)

Sequence of human GLP-1R (P43220 24-463 G168S): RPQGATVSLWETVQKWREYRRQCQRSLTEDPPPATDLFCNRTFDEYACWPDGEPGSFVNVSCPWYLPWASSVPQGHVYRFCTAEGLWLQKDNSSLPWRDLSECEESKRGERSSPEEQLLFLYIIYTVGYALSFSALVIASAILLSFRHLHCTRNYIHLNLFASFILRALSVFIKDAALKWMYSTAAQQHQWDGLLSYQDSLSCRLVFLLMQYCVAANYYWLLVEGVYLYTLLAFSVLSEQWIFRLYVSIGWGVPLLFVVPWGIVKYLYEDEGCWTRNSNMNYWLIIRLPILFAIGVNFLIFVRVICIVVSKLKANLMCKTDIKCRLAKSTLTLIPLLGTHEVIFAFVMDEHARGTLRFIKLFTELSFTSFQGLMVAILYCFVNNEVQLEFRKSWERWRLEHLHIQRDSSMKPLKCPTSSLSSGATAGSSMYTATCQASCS

EC50 [nM] | Emax [1] [%] | Emax (relative to saturating full agonist GLP-1 (1 μM), read-out: Assay 1 Emax) [%] | SMILES
300 | 66 | – | CN1CCC[C@@H]1Cn1c(CN2CCC(c3cccc(OCc4ccc(Cl)cc4F)n3)CC2)nc2ccc(C(=O)O)cc21 [Compound 309B, 2-[(4-{6-[(4-chloro-2-fluorobenzyl)oxy]pyridin-2-yl}piperidin-1-yl)methyl]-1-{[(2R)-1-methylpyrrolidin-2-yl]methyl}-1H-benzimidazole-6-carboxylic acid]
390 | 72 | – | CC1(C)CC(Cn2c(CN3CCC(c4cccc(OCc5ccc(Cl)cc5F)n4)CC3)nc3ccc(C(=O)O)cc32)O1 (centres unmarked) [Compound 235B, 2-[(4-{6-[(4-chloro-2-fluorobenzyl)oxy]pyridin-2-yl}piperidin-1-yl)methyl]-1-[(4,4-dimethyloxetan-2-yl)methyl]-1H-benzimidazole-6-carboxylic acid]
190 | 74 | – | Cc1noc(CCn2c(CN3CCC(c4cccc(OCc5ccc(Cl)cc5F)n4)CC3)nc3ccc(C(=O)O)cc32)n1 [Compound 304B, 2-[(4-{6-[(4-chloro-2-fluorobenzyl)oxy]pyridin-2-yl}piperidin-1-yl)methyl]-1-[2-(3-methyl-1,2,4-oxadiazol-5-yl)ethyl]-1H-benzimidazole-6-carboxylic acid]
520 | – | – | Cn1cc(Cn2c(CN3CCC(c4cccc(OCc5ccc(Cl)cc5F)n4)CC3)nc3ccc(C(=O)O)cc32)cn1 [Compound 318B, 2-[(4-{6-[(4-chloro-2-fluorobenzyl)oxy]pyridin-2-yl}piperidin-1-yl)methyl]-1-[(1-methyl-1H-pyrazol-4-yl)methyl]-1H-benzimidazole-6-carboxylic acid]
320 | 79 | – | Cc1cc(Cn2c(CN3CCC(c4cccc(OCc5ccc(Cl)cc5F)n4)CC3)nc3ccc(C(=O)O)cc32)no1 [Compound 310B, 2-[(4-{6-[(4-chloro-2-fluorobenzyl)oxy]pyridin-2-yl}piperidin-1-yl)methyl]-1-[(5-methyl-1,2-oxazol-3-yl)methyl]-1H-benzimidazole-6-carboxylic acid]
1100 | 65 | – | COC[C@H](C)n1c(CN2CCC(c3cccc(OCc4ccc(Cl)cc4F)n3)CC2)nc2ccc(C(=O)O)cc21 [Compound 320B, 2-[(4-{6-[(4-chloro-2-fluorobenzyl)oxy]pyridin-2-yl}piperidin-1-yl)methyl]-1-[(2S)-1-methoxypropan-2-yl]-1H-benzimidazole-6-carboxylic acid]
1300 | 79 | – | CC(C)n1cnnc1Cn1c(CN2CCC(c3cccc(OCc4ccc(Cl)cc4F)n3)CC2)nc2ccc(C(=O)O)cc21 [Compound 236B, 2-[(4-{6-[(4-chloro-2-fluorobenzyl)oxy]pyridin-2-yl}piperidin-1-yl)methyl]-1-{[4-(propan-2-yl)-4H-1,2,4-triazol-3-yl]methyl}-1H-benzimidazole-6-carboxylic acid]
2200 | 87 | – | O=C(O)c1ccc2nc(CN3CCC(c4cccc(OCc5ccc(Cl)cc5F)n4)CC3)n(CCN3CCOCC3)c2c1 [Compound 325B, 2-[(4-{6-[(4-chloro-2-fluorobenzyl)oxy]pyridin-2-yl}piperidin-1-yl)methyl]-1-[2-(morpholin-4-yl)ethyl]-1H-benzimidazole-6-carboxylic acid]
> 20000 | – | – | CN1CC[C@@H]1Cn1c(CN2CCC(c3cccc(OCc4ccc(Cl)cc4F)n3)CC2)nc2ccc(C(=O)O)cc21 (stereo in doubt) [Compound 275B, 2-[(4-{6-[(4-chloro-2-fluorobenzyl)oxy]pyridin-2-yl}piperidin-1-yl)methyl]-1-[(1-methylazetidin-2-yl)methyl]-1H-benzimidazole-6-carboxylic acid]
> 20000 | – | – | CCn1cncc1Cn1c(CN2CCN(c3cccc(OCc4ccc(C#N)cc4F)n3)C[C@@H]2C)nc2ccc(C(=O)O)cc21 [Compound 269B, 2-{[(2S)-4-{6-[(4-cyano-2-fluorobenzyl)oxy]pyridin-2-yl}-2-methylpiperazin-1-yl]methyl}-1-[(1-ethyl-1H-imidazol-5-yl)methyl]-1H-benzimidazole-6-carboxylic acid]
2900 | 88 | – | CC(c1nncn1C)n1c(CN2CCC(c3cccc(OCc4ccc(Cl)cc4F)n3)CC2)nc2ccc(C(=O)O)cc21 (centres unmarked) [Compound 327B, 2-[(4-{6-[(4-chloro-2-fluorobenzyl)oxy]pyridin-2-yl}piperidin-1-yl)methyl]-1-[1-(4-methyl-4H-1,2,4-triazol-3-yl)ethyl]-1H-benzimidazole-6-carboxylic acid]
130 | 80 | – | CC(F)(F)Cn1c(CN2CCC(c3cccc(OCc4ccc(Cl)cc4F)n3)CC2)nc2ccc(C(=O)O)cc21 [Compound 302B, 2-[(4-{6-[(4-chloro-2-fluorobenzyl)oxy]pyridin-2-yl}piperidin-1-yl)methyl]-1-(2,2-difluoropropyl)-1H-benzimidazole-6-carboxylic acid]
390 | 82 | – | COCCn1c(CN2CCC(c3cccc(OCc4ccc(Cl)cc4F)n3)CC2)nc2ccc(C(=O)O)nc21 [Compound 213B, 2-[(4-{6-[(4-chloro-2-fluorobenzyl)oxy]pyridin-2-yl}piperidin-1-yl)methyl]-3-(2-methoxyethyl)-3H-imidazo[4,5-b]pyridine-5-carboxylic acid]
170 | – | – | O=C(O)c1ccc2nc(CN3CCC(c4cccc(OCc5ccc(Cl)cc5F)n4)CC3)n(CCn3cccn3)c2c1 [Compound 303B, 2-[(4-{6-[(4-chloro-2-fluorobenzyl)oxy]pyridin-2-yl}piperidin-1-yl)methyl]-1-[2-(1H-pyrazol-1-yl)ethyl]-1H-benzimidazole-6-carboxylic acid]
> 17000 | 100 | – | COCCn1c(CN2CCN(c3nc(OCc4ccc(Cl)cc4F)ccc3F)C[C@@H]2C)nc2ccc(C(=O)O)cc21 [Compound 180B, 2-{[(2S)-4-{6-[(4-chloro-2-fluorobenzyl)oxy]-3-fluoropyridin-2-yl}-2-methylpiperazin-1-yl]methyl}-1-(2-methoxyethyl)-1H-benzimidazole-6-carboxylic acid]
– | – | 89 | COCCn1c(CN2CCC(c3cccc4c3OC(C)(c3ccc(C#N)cn3)O4)CC2)nc2ccc(C(=O)O)cc21 (stereo not drawn) [Compound 98B, ammonium 2-({4-[2-(5-cyanopyridin-2-yl)-2-methyl-1,3-benzodioxol-4-yl]piperidin-1-yl}methyl)-1-(2-methoxyethyl)-1H-benzimidazole-6-carboxylate, ENT-X2]
> 20000 | – | – | O=C(O)c1ccc2nc(CN3CCC(c4cccc(OCc5ccc(Cl)cc5F)n4)CC3)n(Cc3cnoc3)c2c1 [Compound 270B, 2-[(4-{6-[(4-chloro-2-fluorobenzyl)oxy]pyridin-2-yl}piperidin-1-yl)methyl]-1-(1,2-oxazol-4-ylmethyl)-1H-benzimidazole-6-carboxylic acid]
510 | 64 | – | O=C(O)c1ccc2nc(CN3CCC(c4cccc(OCc5ccc(Cl)cc5F)n4)CC3)n(C[C@H]3CCCO3)c2c1 [Compound 343B, 2-[(4-{6-[(4-chloro-2-fluorobenzyl)oxy]pyridin-2-yl}piperidin-1-yl)methyl]-1-[(2R)-tetrahydrofuran-2-ylmethyl]-1H-benzimidazole-6-carboxylic acid]
> 11000 | 84 | – | N#Cc1ccc(COc2cccc(C3CCN(Cc4nc5ccc(C(=O)O)cc5n4C[C@@H]4CCO4)CC3)n2)cc1 [Compound 130B, 2-[(4-{6-[(4-cyanobenzyl)oxy]pyridin-2-yl}piperidin-1-yl)methyl]-1-[(2S)-oxetan-2-ylmethyl]-1H-benzimidazole-6-carboxylic acid]
390 | 69 | – | CCn1ccnc1Cn1c(CN2CCC(c3cccc(OCc4ccc(Cl)cc4F)n3)CC2)nc2ccc(C(=O)O)cc21 [Compound 314B, 2-[(4-{6-[(4-chloro-2-fluorobenzyl)oxy]pyridin-2-yl}piperidin-1-yl)methyl]-1-[(1-ethyl-1H-imidazol-2-yl)methyl]-1H-benzimidazole-6-carboxylic acid]
1400 | 97 | – | Cc1cc(Cn2c(CN3CCC(c4cccc(OCc5ccc(Cl)cc5F)n4)CC3)nc3ccc(C(=O)O)cc32)on1 [Compound 322B, 2-[(4-{6-[(4-chloro-2-fluorobenzyl)oxy]pyridin-2-yl}piperidin-1-yl)methyl]-1-[(3-methyl-1,2-oxazol-5-yl)methyl]-1H-benzimidazole-6-carboxylic acid]
420 | 81 | – | COCCn1c(CN2CCN(c3cccc(OCc4ccc(Cl)cc4F)n3)C[C@@H]2C2CC2)nc2ccc(C(=O)O)cc21 [Compound 350B, 2-{[(2S)-4-{6-[(4-chloro-2-fluorobenzyl)oxy]pyridin-2-yl}-2-cyclopropylpiperazin-1-yl]methyl}-1-(2-methoxyethyl)-1H-benzimidazole-6-carboxylic acid]
210 | 66 | – | O=C(O)c1ccc2nc(CN3CCN(c4cccc(OCc5ccc(Cl)cc5F)n4)CC3)n(C[C@@H]3CCO3)c2c1 [Compound 119B, 2-[(4-{6-[(4-chloro-2-fluorobenzyl)oxy]pyridin-2-yl}piperazin-1-yl)methyl]-1-[(2S)-oxetan-2-ylmethyl]-1H-benzimidazole-6-carboxylic acid]
1100 | 47 | – | Cn1cc(CCn2c(CN3CCC(c4cccc(OCc5ccc(Cl)cc5F)n4)CC3)nc3ccc(C(=O)O)cc32)nn1 [Compound 319B, 2-[(4-{6-[(4-chloro-2-fluorobenzyl)oxy]pyridin-2-yl}piperidin-1-yl)methyl]-1-[2-(1-methyl-1H-1,2,3-triazol-4-yl)ethyl]-1H-benzimidazole-6-carboxylicacid]
1100 | 81 | – | COC[C@@H](C)n1c(CN2CCC(c3cccc(OCc4ccc(Cl)cc4F)n3)CC2)nc2ccc(C(=O)O)cc21 [Compound 321B, 2-[(4-{6-[(4-chloro-2-fluorobenzyl)oxy]pyridin-2-yl}piperidin-1-yl)methyl]-1-[(2R)-1-methoxypropan-2-yl]-1H-benzimidazole-6-carboxylic acid]
